In brackets after ≈: the same amount, converted by molar mass.
Tests used:
Sporothrix schenckii = assay: Antifungal activity against Sporothrix schenckii by broth microdilution technique; format: functional, organism-based
Cryptococcus neoformans = assay: Antifungal activity against Cryptococcus neoformans by broth microdilution technique; format: functional, organism-based
Candida parapsilosis = assay: Antifungal activity against Candida parapsilosis ATCC 22019 by broth microdilution technique; format: functional, organism-based; details: Lodderomyces parapsilosis
Trichophyton benhamiae = assay: Antifungal activity against Trichophyton mentagrophytes by broth microdilution technique; format: functional, organism-based, Arthroderma benhamiae
Candida albicans = assay: Antifungal activity against Candida albicans by broth microdilution technique; format: functional, organism-based
Escherichia coli = assay: Antibacterial activity against Escherichia coli by broth microdilution technique; format: functional, organism-based
Enterococcus faecalis = assay: Antibacterial activity against Streptococcus faecalis by broth microdilution technique; format: functional, organism-based
Klebsiella pneumoniae = assay: Antibacterial activity against Klebsiella pneumoniae by broth microdilution technique; format: functional, organism-based
Staphylococcus aureus = assay: Antibacterial activity against Staphylococcus aureus by broth microdilution technique; format: functional, organism-based
Pseudomonas aeruginosa = assay: Antibacterial activity against Pseudomonas aeruginosa by broth microdilution technique; format: functional, organism-based
Aspergillus fumigatus = assay: Antifungal activity against Aspergillus fumigatus by broth microdilution technique; format: functional, organism-based
[1] = Escherichia coli, read-out: IC50
[2] = Enterococcus faecalis, read-out: IC50
[3] = Klebsiella pneumoniae, read-out: IC50
[4] = Staphylococcus aureus, read-out: IC50
[5] = Pseudomonas aeruginosa, read-out: IC50

Row | Compound | IC50 (Sporothrix schenckii) [µg/mL] | MIC (Sporothrix schenckii) [µg/mL] | IC50 (Cryptococcus neoformans) [µg/mL] | MIC (Cryptococcus neoformans) [µg/mL] | IC50 (Candida parapsilosis) [µg/mL] | MIC (Candida parapsilosis) [µg/mL] | IC50 (Trichophyton benhamiae) [µg/mL] | MIC (Trichophyton benhamiae) [µg/mL] | IC50 (Candida albicans) [µg/mL] | MIC (Candida albicans) [µg/mL] | IC50 (Escherichia coli; [1]) [µg/mL] | MIC (Enterococcus faecalis; Enterococcus faecalis) [µg/mL] | IC50 (Enterococcus faecalis; [2]) [µg/mL] | MIC (Klebsiella pneumoniae; Klebsiella pneumoniae) [µg/mL] | IC50 (Klebsiella pneumoniae; [3]) [µg/mL] | MIC (Staphylococcus aureus; Staphylococcus aureus) [µg/mL] | IC50 (Staphylococcus aureus; [4]) [µg/mL] | MIC (Pseudomonas aeruginosa; Pseudomonas aeruginosa) [µg/mL] | IC50 (Aspergillus fumigatus) [µg/mL] | MIC (Aspergillus fumigatus) [µg/mL] | other results
1 | CCOC(=O)CSC1=C(NC(C)C)C(=O)c2ccccc2C1=O | 38.6 (≈ 116 µM) | 50 (≈ 150 µM) | 11.3 (≈ 33.8 µM) | 12.5 (≈ 37.5 µM) | 23.2 (≈ 69.7 µM) | 25 (≈ 75 µM) | 9.8 (≈ 29.4 µM) | 12.5 (≈ 37.5 µM) | 44.3 (≈ 133 µM) | 50 (≈ 150 µM) | 25 (≈ 74.9 µM) | 25 (≈ 75 µM) | 20.6 (≈ 61.9 µM) | 50 (≈ 150 µM) | 46.9 (≈ 141 µM) | 12.5 (≈ 37.5 µM) | 18.5 (≈ 55.4 µM) | 50 (≈ 150 µM) | 44.9 (≈ 135 µM) | 50 (≈ 150 µM) | MIC (Escherichia coli; Escherichia coli): 25 µg/mL (≈ 75 µM); IC50 (Pseudomonas aeruginosa; [5]): 35.9 µg/mL (≈ 108 µM)
2 | CCOC(=O)C(C)SC1=C(N)C(=O)c2ccccc2C1=O (stereo unspecified) | 17.9 (≈ 58.7 µM) | 25 (≈ 81.9 µM) | 12 (≈ 39.3 µM) | 12.5 (≈ 40.9 µM) | 21.2 (≈ 69.6 µM) | 25 (≈ 81.9 µM) | > 50 | > 50 | 24.2 (≈ 79.3 µM) | 25 (≈ 81.9 µM) | 1.18 (≈ 3.86 µM) | 12.5 (≈ 40.9 µM) | 8.54 (≈ 28 µM) | 12.5 (≈ 40.9 µM) | 11.7 (≈ 38.3 µM) | 6.25 (≈ 20.5 µM) | 6.16 (≈ 20.2 µM) | 50 (≈ 164 µM) | 16.6 (≈ 54.3 µM) | 25 (≈ 81.9 µM) | MIC (Escherichia coli; Escherichia coli): 1.56 µg/mL (≈ 5.11 µM); IC50 (Pseudomonas aeruginosa; [5]): 34.5 µg/mL (≈ 113 µM)
3 | CCOC(=O)CSC1=C(NCC(C)C)C(=O)c2ccccc2C1=O | 22.8 (≈ 65.7 µM) | 50 (≈ 144 µM) | > 50 | > 50 | > 50 | > 50 | 9.8 (≈ 28.2 µM) | 12.5 (≈ 36 µM) | > 50 | > 50 | 39.3 (≈ 113 µM) | 25 (≈ 72 µM) | 19.5 (≈ 56.2 µM) | 50 (≈ 144 µM) | 38.5 (≈ 111 µM) | 25 (≈ 72 µM) | 21.6 (≈ 62.1 µM) | 50 (≈ 144 µM) | > 50 | > 50 | MIC (Escherichia coli; Escherichia coli): 50 µg/mL (≈ 144 µM); IC50 (Pseudomonas aeruginosa; [5]): 42.5 µg/mL (≈ 122 µM)
4 | GENTAMICIN [listing 1 of 2 here] | – | – | – | – | – | – | – | – | – | – | – | – | – | – | – | – | – | – | – | – | MIC (Escherichia coli): 0.18 µg/mL; MIC (Enterococcus faecalis): 0.78 µg/mL; MIC (Klebsiella pneumoniae): 0.78 µg/mL; MIC (Staphylococcus aureus): 6.25 µg/mL; MIC (Pseudomonas aeruginosa): 25 µg/mL
5 | CCOC(=O)C(C)SC1=C(NCCO)C(=O)c2ccccc2C1=O (stereo unspecified) | 21.9 (≈ 62.8 µM) | 25 (≈ 71.5 µM) | 6.92 (≈ 19.8 µM) | 12.5 (≈ 35.8 µM) | 22.5 (≈ 64.5 µM) | 25 (≈ 71.5 µM) | > 50 | > 50 | 23.3 (≈ 66.6 µM) | 25 (≈ 71.5 µM) | 2.24 (≈ 6.41 µM) | 6.25 (≈ 17.9 µM) | 5.42 (≈ 15.5 µM) | 12.5 (≈ 35.8 µM) | 11.6 (≈ 33.1 µM) | 6.25 (≈ 17.9 µM) | 4.82 (≈ 13.8 µM) | 25 (≈ 71.5 µM) | 23.9 (≈ 68.5 µM) | 25 (≈ 71.5 µM) | MIC (Escherichia coli; Escherichia coli): 3.12 µg/mL (≈ 8.93 µM); IC50 (Pseudomonas aeruginosa; [5]): 24.5 µg/mL (≈ 70.2 µM)
6 | CCOC(=O)CSC1=C(NCc2ccccc2)C(=O)c2ccccc2C1=O | > 50 | > 50 | > 50 | > 50 | > 50 | > 50 | 4.5 (≈ 11.8 µM) | 6.25 (≈ 16.4 µM) | > 50 | > 50 | 9.2 (≈ 24.1 µM) | > 50 | > 50 | 25 (≈ 65.5 µM) | 22.3 (≈ 58.6 µM) | 12.5 (≈ 32.8 µM) | 11.6 (≈ 30.4 µM) | > 50 | > 50 | > 50 | MIC (Escherichia coli; Escherichia coli): 12.5 µg/mL (≈ 32.8 µM); IC50 (Pseudomonas aeruginosa; [5]): > 50 µg/mL
7 | GENTAMICIN [listing 2 of 2 here] | – | – | – | – | – | – | – | – | – | – | – | – | – | – | – | – | – | – | – | – | IC50 (Escherichia coli): 0.11 µg/mL; IC50 (Enterococcus faecalis): 0.62 µg/mL; IC50 (Klebsiella pneumoniae): 0.34 µg/mL; IC50 (Staphylococcus aureus): 4.46 µg/mL; IC50 (Pseudomonas aeruginosa): 24.64 µg/mL
8 | OC(Cn1cncn1)(Cn1cncn1)c1ccc(F)cc1F [FLUCONAZOLE] | 1.45 (≈ 4.73 µM) | 2 (≈ 6.53 µM) | 0.46 (≈ 1.5 µM) | 1 (≈ 3.27 µM) | – | 1 (≈ 3.27 µM) | 0.63 (≈ 2.06 µM) | 1 (≈ 3.27 µM) | – | 0.5 (≈ 1.63 µM) | – | – | – | – | – | – | – | – | 1.06 (≈ 3.46 µM) | 2 (≈ 6.53 µM) | –
9 | C[C@@H]1[C@H](O)[C@@H](C)/C=C/C=C/C=C/C=C/C=C/C=C/C=C/[C@H](O[C@@H]2O[C@H](C)[C@@H](O)[C@H](N)[C@@H]2O)C[C@@H]2O[C@](O)(C[C@@H](O)C[C@@H](O)[C@H](O)CC[C@@H](O)C[C@@H](O)CC(=O)O[C@H]1C)C[C@H](O)[C@H]2C(=O)O [AMPHOTERICIN B] | 0.08 (≈ 0.0866 µM) | 0.12 (≈ 0.13 µM) | 0.04 (≈ 0.0433 µM) | 0.06 (≈ 0.0649 µM) | 0.11 (≈ 0.119 µM) | 0.12 (≈ 0.13 µM) | 0.09 (≈ 0.0974 µM) | 0.12 (≈ 0.13 µM) | 0.09 (≈ 0.0974 µM) | 0.12 (≈ 0.13 µM) | – | – | – | – | – | – | – | – | 0.38 (≈ 0.411 µM) | 0.5 (≈ 0.541 µM) | –
10 | CC1(C)S[C@@H]2[C@H](NC(=O)[C@H](N)c3ccccc3)C(=O)N2[C@H]1C(=O)O [AMPICILLIN] | – | – | – | – | – | – | – | – | – | – | 0.01 (≈ 0.0286 µM) | 0.02 (≈ 0.0572 µM) | 0.01 (≈ 0.0286 µM) | 0.09 (≈ 0.258 µM) | 0.08 (≈ 0.229 µM) | 0.9 (≈ 2.58 µM) | 0.74 (≈ 2.12 µM) | 50 (≈ 143 µM) | – | – | IC50 (Pseudomonas aeruginosa; [5]): 48.7 µg/mL (≈ 139 µM)
